Values of other authors, collected in patent publication US20170112856A1, “PHARMACEUTICAL COMPOSITION FOR TREATING CANCER IN AN INDIVIDUAL SUBJECT SUFFERING CANCER” (MA SHEN KAI RUEI CO., LTD., priority 2015, published 2017).

Key:
[1] = tested on: human HL60 leukemia cells
[2] = tested on: murine macrophages RAW264.7; conditions: LPS-induction
[3] = tested on: human colorectal cancer cells (COLO 205)
[4] = tested on: normal intestinal epithelial cells (FHC cells)

| Compound | amount of free radicals of nitric oxide [2] | further results |
| --- | --- | --- |
| C=C(CC[C@@H](C)[C@H]1CC[C@H]2C3=C(C(=O)C[C@]12C)[C@@]1(C)CCC(=O)[C@@H](C)C1CC3=O)C(C)C(=O)O (stereo partly drawn) [Zhankuic acid A, 4 α-methylergost-8,24(28)-dien-3,7,11-trion-26-oic acid] |  | apoptosis [1]: inducing apoptosis |
| Antroquinonol B [AQB] | effectively reducing |  |
| 4-acetyl-Antroquinonol B [Composition 4-acetyl-AQB] | effectively reducing |  |
| COc1cc(C)c(O)c(OC)c1O [2,4-dimethoxy-6-methyl-benzene-1,3-diol] | effectively reducing |  |
| Cc1cc(O)c2c(c1O)OCO2 [2,3-(methylenedioxy)-6-methyl-benzene-1,4-diol] | effectively reducing |  |
| COc1cc(C)c(OC)c2c1OCO2 [SY-1] |  | programmed death of cell ([3]; COLO 205, higher doses): induce programmed death of cell; cell cycle ([3]; COLO 205, lower doses): remain in the G0/G1 phase; impact on normal cells [4]: does not have an impact |
